Measured values published in the supplement of paper PMC10733146.

Experiments:
Experiment in all cases: viability relative to DMSO control (fraction); higher = less drug effect (more viable cells)
Details in all cases: 48 h
[1] = tested on: primary AML patient cells (S081)
Method in brief: (§1)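 Cells were incubated for 48 h at 37 °C and 5% CO2 in RPMI-1640 with penicillin/streptomycin, L-glutamine and human serum, at 4 × 10^4 cells per well in 384-well plates with compounds pre-plated at five concentrations, one well each. These were primary mononuclear tumour cells, fresh or cryopreserved, Ficoll-isolated from blood or bone marrow or obtained from processed lymph node. Viability values are CellTiter-Glo luminescence relative to the median of 16 inner DMSO wells.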

[2] = tested on: primary B-PLL patient cells (S016)
Method in brief: as §1

[3] = tested on: primary FL patient cells (S087)
Method in brief: as §1

[4] = tested on: primary AML patient cells (S017)
Method in brief: as §1

[5] = tested on: primary CLL patient cells (S031)
Method in brief: as §1

[6] = tested on: primary MCL patient cells (S063)
Method in brief: as §1

[7] = tested on: primary FL patient cells (S022)
Method in brief: as §1

[8] = tested on: primary MCL patient cells (S053)
Method in brief: as §1

[9] = tested on: primary AML patient cells (S021)
Method in brief: as §1

[10] = tested on: primary MCL patient cells (S068)
Method in brief: as §1

[11] = tested on: primary AML patient cells (S011)
Method in brief: as §1

[12] = tested on: primary CLL patient cells (S043)
Method in brief: as §1

[13] = tested on: primary AML patient cells (S012)
Method in brief: as §1

[14] = tested on: primary AML patient cells (S056)
Method in brief: as §1

[15] = tested on: primary BL patient cells (S005)
Method in brief: as §1

[16] = tested on: primary AML patient cells (S085)
Method in brief: as §1

[17] = tested on: primary ALL patient cells (S048)
Method in brief: as §1

[18] = tested on: primary ALL patient cells (S088)
Method in brief: as §1

[19] = tested on: primary AML patient cells (S060)
Method in brief: as §1

[20] = tested on: primary AML patient cells (S006)
Method in brief: as §1

Nc1ncn([C@@H]2O[C@H](CO)[C@@H](O)[C@H]2O)c(=O)n1 [Azacytidine (Vidaza)]
viability ([1]; 0.032 µM): 0.955
viability ([1]; 0.16 µM): 1.08
viability ([1]; 0.8 µM): 1.04
viability ([1]; 4 µM): 0.951
viability ([1]; 20 µM): 0.832
viability ([2]; 0.032 µM): 1.03
viability ([2]; 0.16 µM): 1.06
viability ([2]; 0.8 µM): 0.912
viability ([2]; 4 µM): 0.142
viability ([2]; 20 µM): 0.0474
viability ([3]; 0.032 µM): 1.1
viability ([3]; 0.16 µM): 1.06
viability ([3]; 0.8 µM): 0.997
viability ([3]; 4 µM): 0.906
viability ([3]; 20 µM): 0.678
viability ([4]; 0.032 µM): 0.912
viability ([4]; 0.16 µM): 0.96
viability ([4]; 0.8 µM): 0.935
viability ([4]; 4 µM): 0.661
viability ([4]; 20 µM): 0.562
viability ([5]; 0.032 µM): 1.08
viability ([5]; 0.16 µM): 1.01
viability ([5]; 0.8 µM): 0.989
viability ([5]; 4 µM): 0.539
viability ([5]; 20 µM): 0.0698
viability ([6]; 0.032 µM): 1.04
viability ([6]; 0.16 µM): 1.07
viability ([6]; 0.8 µM): 1.03
viability ([6]; 4 µM): 0.839
viability ([6]; 20 µM): 0.173
viability ([7]; 0.032 µM): 1.03
viability ([7]; 0.16 µM): 1
viability ([7]; 0.8 µM): 1.01
viability ([7]; 4 µM): 0.949
viability ([7]; 20 µM): 0.624
viability ([8]; 0.032 µM): 0.924
viability ([8]; 0.16 µM): 0.999
viability ([8]; 0.8 µM): 0.587
viability ([8]; 4 µM): 0.351
viability ([8]; 20 µM): 0.289
viability ([9]; 0.032 µM): 0.982
viability ([9]; 0.16 µM): 1.17
viability ([9]; 0.8 µM): 0.936
viability ([9]; 4 µM): 0.501
viability ([9]; 20 µM): 0.31
viability ([10]; 0.032 µM): 0.969
viability ([10]; 0.16 µM): 1.04
viability ([10]; 0.8 µM): 0.798
viability ([10]; 4 µM): 0.325
viability ([10]; 20 µM): 0.232
viability ([11]; 0.032 µM): 1.05
viability ([11]; 0.16 µM): 1.29
viability ([11]; 0.8 µM): 0.811
viability ([11]; 4 µM): 0.32
viability ([11]; 20 µM): 0.134
viability ([12]; 0.032 µM): 0.937
viability ([12]; 0.16 µM): 1.11
viability ([12]; 0.8 µM): 0.889
viability ([12]; 4 µM): 0.716
viability ([12]; 20 µM): 0.55
viability ([13]; 0.032 µM): 0.958
viability ([13]; 0.16 µM): 1.01
viability ([13]; 0.8 µM): 1.04
viability ([13]; 4 µM): 0.92
viability ([13]; 20 µM): 0.766
viability ([14]; 0.032 µM): 0.987
viability ([14]; 0.16 µM): 0.997
viability ([14]; 0.8 µM): 0.467
viability ([14]; 4 µM): 0.0878
viability ([14]; 20 µM): 0.078
viability ([15]; 0.032 µM): 0.847
viability ([15]; 0.16 µM): 0.862
viability ([15]; 0.8 µM): 0.841
viability ([15]; 4 µM): 0.766
viability ([15]; 20 µM): 0.708
viability ([16]; 0.032 µM): 1.22
viability ([16]; 0.16 µM): 0.976
viability ([16]; 0.8 µM): 0.638
viability ([16]; 4 µM): 0.14
viability ([16]; 20 µM): 0.0812
viability ([17]; 0.032 µM): 0.926
viability ([17]; 0.16 µM): 0.989
viability ([17]; 0.8 µM): 0.695
viability ([17]; 4 µM): 0.239
viability ([17]; 20 µM): 0.102
viability ([18]; 0.032 µM): 0.958
viability ([18]; 0.16 µM): 1.06
viability ([18]; 0.8 µM): 0.934
viability ([18]; 4 µM): 0.552
viability ([18]; 20 µM): 0.233
viability ([19]; 0.032 µM): 1
viability ([19]; 0.16 µM): 1.02
viability ([19]; 0.8 µM): 1.02
viability ([19]; 4 µM): 1.02
viability ([19]; 20 µM): 0.923
viability ([20]; 0.032 µM): 1.07
viability ([20]; 0.16 µM): 0.973
viability ([20]; 0.8 µM): 0.426
viability ([20]; 4 µM): 0.0789
viability ([20]; 20 µM): 0.0614

CNC(=O)c1cc(Oc2ccc(NC(=O)Nc3ccc(Cl)c(C(F)(F)F)c3)cc2)ccn1 [Sorafenib]
viability ([1]; 0.024 µM): 0.918
viability ([1]; 0.12 µM): 0.958
viability ([1]; 0.6 µM): 1.03
viability ([1]; 3 µM): 0.99
viability ([1]; 15 µM): 1.06
viability ([2]; 0.024 µM): 0.964
viability ([2]; 0.12 µM): 1.05
viability ([2]; 0.6 µM): 1.01
viability ([2]; 3 µM): 1
viability ([2]; 15 µM): 0.978
viability ([3]; 0.024 µM): 1.01
viability ([3]; 0.12 µM): 1.04
viability ([3]; 0.6 µM): 1.08
viability ([3]; 3 µM): 1.06
viability ([3]; 15 µM): 1.04
viability ([4]; 0.024 µM): 0.955
viability ([4]; 0.12 µM): 0.988
viability ([4]; 0.6 µM): 0.935
viability ([4]; 3 µM): 1.04
viability ([4]; 15 µM): 0.927
viability ([5]; 0.024 µM): 1.01
viability ([5]; 0.12 µM): 1.02
viability ([5]; 0.6 µM): 1.13
viability ([5]; 3 µM): 1.02
viability ([5]; 15 µM): 1.04
viability ([6]; 0.024 µM): 0.98
viability ([6]; 0.12 µM): 1.02
viability ([6]; 0.6 µM): 0.973
viability ([6]; 3 µM): 1.06
viability ([6]; 15 µM): 1.02
viability ([7]; 0.024 µM): 1.05
viability ([7]; 0.12 µM): 1.01
viability ([7]; 0.6 µM): 1.06
viability ([7]; 3 µM): 0.999
viability ([7]; 15 µM): 1
viability ([9]; 0.024 µM): 0.995
viability ([9]; 0.12 µM): 1.09
viability ([9]; 0.6 µM): 1.07
viability ([9]; 3 µM): 1.12
viability ([9]; 15 µM): 0.888
viability ([10]; 0.024 µM): 0.919
viability ([10]; 0.12 µM): 1.03
viability ([10]; 0.6 µM): 1.03
viability ([10]; 3 µM): 1.22
viability ([10]; 15 µM): 1.66
viability ([11]; 0.024 µM): 0.966
viability ([11]; 0.12 µM): 1.02
viability ([11]; 0.6 µM): 0.972
viability ([11]; 3 µM): 0.875
viability ([11]; 15 µM): 0.715
viability ([12]; 0.024 µM): 0.938
viability ([12]; 0.12 µM): 1.05
viability ([12]; 0.6 µM): 0.94
viability ([12]; 3 µM): 1.08
viability ([12]; 15 µM): 0.858
viability ([13]; 0.024 µM): 0.958
viability ([13]; 0.12 µM): 0.991
viability ([13]; 0.6 µM): 1.05
viability ([13]; 3 µM): 1.01
viability ([13]; 15 µM): 1.09
viability ([14]; 0.024 µM): 0.642
viability ([14]; 0.12 µM): 0.488
viability ([14]; 0.6 µM): 0.443
viability ([14]; 3 µM): 0.453
viability ([14]; 15 µM): 0.374
viability ([15]; 0.024 µM): 0.839
viability ([15]; 0.12 µM): 0.905
viability ([15]; 0.6 µM): 0.92
viability ([15]; 3 µM): 0.957
viability ([15]; 15 µM): 0.885
viability ([16]; 0.024 µM): 1.09
viability ([16]; 0.12 µM): 1.06
viability ([16]; 0.6 µM): 0.916
viability ([16]; 3 µM): 1.12
viability ([16]; 15 µM): 1.03
viability ([17]; 0.024 µM): 0.874
viability ([17]; 0.12 µM): 1
viability ([17]; 0.6 µM): 0.889
viability ([17]; 3 µM): 0.894
viability ([17]; 15 µM): 1.03
viability ([18]; 0.024 µM): 0.811
viability ([18]; 0.12 µM): 0.896
viability ([18]; 0.6 µM): 0.844
viability ([18]; 3 µM): 0.996
viability ([18]; 15 µM): 1.31
viability ([19]; 0.024 µM): 0.963
viability ([19]; 0.12 µM): 0.951
viability ([19]; 0.6 µM): 1.02
viability ([19]; 3 µM): 1.02
viability ([19]; 15 µM): 1.09
viability ([20]; 0.024 µM): 0.709
viability ([20]; 0.12 µM): 0.508
viability ([20]; 0.6 µM): 0.413
viability ([20]; 3 µM): 0.423
viability ([20]; 15 µM): 0.378
